Test results published in US9505795B2, “Method for producing scyllo-inositol” (Asahi Kasei Chemicals Corporation, priority 2012, dated 2016).

Columns and labels:
[1] = water solubility compared with scyllo-inositol; type: physicochemical; conditions: 25° C., W/V; ratio to scyllo-inositol
Text: Since the scyllo-inositol derivative of the present invention can be produced and treated at high concentration in an aqueous solution, producing scyllo-inositol by obtaining the scyllo-inositol derivative of the present invention and treating it enzymatically has many advantages. Such methods are therefore one preferred method of utilizing the scyllo-inositol derivative of the present invention.

amyloid β protein = conditions: reported in Non-patent Reference 1; cited from earlier work

water solubility relative to the original scyllo-inositol [1]	Structure (SMILES)	effect on amyloid β protein aggregation (amyloid β protein)
at least four	OC[C@@H]1O[C@@H](O[C@H]2[C@H](O)[C@H](O)[C@H](O)[C@@H](O)[C@H]2O)[C@@H](O)[C@@H](O)[C@@H]1O [scyllo-inositol derivative, 1-O-β-D-glucopyranosyl-scyllo-inositol]	
	O[C@H]1[C@H](O)[C@@H](O)[C@H](O)[C@@H](O)[C@@H]1O [scyllo-inositol, cis-1,3,5-trans-2,4,6-cyclohexanehexyl]	inhibitory effect
